Laboratory results: article PMC9516332 (Frontiers in Oncology, 2022)
Where two headings read alike, the source gives them in different places.

Assays:
134 cancer cell lines = test: Cell viability assay (ATPlite, 72 hours), IC50 on cancer cell line panel
AP-1060 (ETV6-NTRK3) = test: Cell viability assay; conditions: read-out: IC50 in cell proliferation assay
[1] = biological target: T1, panel of 255 wild-type kinases (Homo sapiens, UniProt Q8IW41); test: Kinase panel profiling at 1 µmol/L (MSA or IMAP), percentage inhibition; type: biochemical; conditions: MAPKAPK5; 1 µmol/L single concentration; read-out: %-inhibition, MAPKAPK5
T1 sequence (Q8IW41 1-473): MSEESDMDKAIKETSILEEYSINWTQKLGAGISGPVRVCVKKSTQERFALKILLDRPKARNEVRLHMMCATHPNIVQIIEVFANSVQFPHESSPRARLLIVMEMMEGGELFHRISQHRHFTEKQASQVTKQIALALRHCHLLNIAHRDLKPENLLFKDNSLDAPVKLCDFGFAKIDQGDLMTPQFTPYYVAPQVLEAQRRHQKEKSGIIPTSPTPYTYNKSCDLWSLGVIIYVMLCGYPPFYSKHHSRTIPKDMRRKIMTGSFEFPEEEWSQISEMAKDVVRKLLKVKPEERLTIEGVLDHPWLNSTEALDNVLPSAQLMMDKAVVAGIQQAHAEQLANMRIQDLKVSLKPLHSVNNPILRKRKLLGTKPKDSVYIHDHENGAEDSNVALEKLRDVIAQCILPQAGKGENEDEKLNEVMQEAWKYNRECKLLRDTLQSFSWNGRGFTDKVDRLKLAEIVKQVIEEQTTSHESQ

[2] = biological target: panel of 255 wild-type kinases (Homo sapiens, UniProt P45983); test: as above; type: biochemical; conditions: kinase JNK1; 1 µmol/L single concentration; read-out: %-inhibition at 1 µmol/L, JNK1

IC50 (134 cancer cell lines; Homo sapiens, MeWo, read-out: IC50 in cell proliferation assay, MeWo cell line): 28.1 µM
IC50 (134 cancer cell lines; Homo sapiens, NCCIT, read-out: IC50 in cell proliferation assay, NCC-IT cell line): 10.6 µM
IC50 (134 cancer cell lines; Homo sapiens, NCI-H82, read-out: IC50 in cell proliferation assay, cell line NCI-H82): > 31.6 µM
IC50 (134 cancer cell lines; Homo sapiens, NCI-H460, read-out: IC50 in cell proliferation assay, NCI-H460 cell line): 11.1 µM
IC50 (134 cancer cell lines; Homo sapiens, NCI-H661, read-out: IC50 in cell proliferation assay, NCI-H661 cell line): 3.22 µM
IC50 (134 cancer cell lines; Homo sapiens, NCI-H716, read-out: IC50 in cell proliferation assay, cell line NCI-H716 (FGFR2-COL14A1)): 5.31 µM
IC50 (134 cancer cell lines; Homo sapiens, NCI-H1650, read-out: IC50 in cell proliferation assay, NCI-H1650 cell line (EGFR exon19del)): 11 µM
IC50 (134 cancer cell lines; Homo sapiens, NCI-H1975, read-out: IC50 in cell proliferation assay, NCI-H1975 cell line (EGFR p.L858R + p.T790M)): 7.77 µM
IC50 (134 cancer cell lines; Homo sapiens, NCI-H2228, read-out: IC50 in cell proliferation assay, NCI-H2228 cell line (EML4-ALK)): 13.8 µM
IC50 (134 cancer cell lines; Homo sapiens, OVCAR-3, read-out: IC50 in cell proliferation assay, cell line OVCAR-3): 0.617 µM
IC50 (134 cancer cell lines; Homo sapiens, PFSK-1, read-out: IC50 in cell proliferation assay, cell line PFSK-1): 13.1 µM
IC50 (134 cancer cell lines; Homo sapiens, RL95-2, read-out: IC50 in cell proliferation assay, cell line RL95-2 (EGFR p.A289V)): 3.6 µM
IC50 (134 cancer cell lines; Homo sapiens, RPMI-7951, read-out: IC50 in cell proliferation assay, cell line RPMI-7951 (BRAF p.V600E)): 2.81 µM
IC50 (134 cancer cell lines; Homo sapiens, RS4-11, read-out: IC50 in cell proliferation assay, cell line RS4;11): 9.2 µM
IC50 (134 cancer cell lines; Homo sapiens, Rec1, read-out: IC50 in cell proliferation assay, cell line REC-1): 14.4 µM
IC50 (134 cancer cell lines; Homo sapiens, SHP77, read-out: IC50 in cell proliferation assay, cell line SHP-77): > 31.6 µM
IC50 (134 cancer cell lines; Homo sapiens, SK-BR-3, read-out: IC50 in cell proliferation assay, cell line SK-BR-3 (ERBB2 amplification)): 2.33 µM
IC50 (134 cancer cell lines; Homo sapiens, SK-N-AS, read-out: IC50 in cell proliferation assay, cell line SK-N-AS): > 31.6 µM
IC50 (134 cancer cell lines; Homo sapiens, SK-N-FI, read-out: IC50 in cell proliferation assay, cell line SK-N-FI): > 31.6 µM
IC50 (134 cancer cell lines; Homo sapiens, SK-N-MC, read-out: IC50 in cell proliferation assay, cell line SK-N-MC): 12.2 µM
IC50 (134 cancer cell lines; Homo sapiens, SK-N-SH, read-out: IC50 in cell proliferation assay, cell line SK-N-SH (ALK p.F1174L)): 12.6 µM
IC50 (134 cancer cell lines; Homo sapiens, SNU-5, read-out: IC50 in cell proliferation assay, cell line SNU-5 (MET amplification)): 11.2 µM
IC50 (134 cancer cell lines; Homo sapiens, SNU-16, read-out: IC50 in cell proliferation assay, cell line SNU-16 (FGFR2 amplification)): > 31.6 µM
IC50 (134 cancer cell lines; Homo sapiens, SNU-C2B, read-out: IC50 in cell proliferation assay, cell line SNU-C2B (EGFR p.R165Q)): 9.36 µM
IC50 (134 cancer cell lines; Homo sapiens, SU-DHL-1, read-out: IC50 in cell proliferation assay, cell line SU-DHL-1 (NPM1-ALK)): 22.6 µM
IC50 (134 cancer cell lines; Homo sapiens, SU-DHL-6, read-out: IC50 in cell proliferation assay, cell line SU-DHL-6): 0.00177 µM
IC50 (134 cancer cell lines; Homo sapiens, SUP-T1, read-out: IC50 in cell proliferation assay, cell line SUP-T1): 29.3 µM
IC50 (134 cancer cell lines; Homo sapiens, SW48, read-out: IC50 in cell proliferation assay, cell line SW48 (EGFR p.G719S)): 5.94 µM
IC50 (134 cancer cell lines; Homo sapiens, SW480, read-out: IC50 in cell proliferation assay, cell line SW480): 30.5 µM
IC50 (134 cancer cell lines; Homo sapiens, SW626, read-out: IC50 in cell proliferation assay, cell line SW626): 24.9 µM
IC50 (134 cancer cell lines; Homo sapiens, SW780, read-out: IC50 in cell proliferation assay, cell line SW780 (FGFR3-BAIAP2L1)): > 31.6 µM
IC50 (134 cancer cell lines; Homo sapiens, SW837, read-out: IC50 in cell proliferation assay, cell line SW837): 25.9 µM
IC50 (134 cancer cell lines; Homo sapiens, SW872, read-out: IC50 in cell proliferation assay, cell line SW872 (BRAF p.V600E)): 23.7 µM
IC50 (134 cancer cell lines; Homo sapiens, SW900, read-out: IC50 in cell proliferation assay, cell line SW900): 7.57 µM
IC50 (134 cancer cell lines; Homo sapiens, SW948, read-out: IC50 in cell proliferation assay, cell line SW948): 12.7 µM
IC50 (134 cancer cell lines; Homo sapiens, SW982, read-out: IC50 in cell proliferation assay, cell line SW982 (BRAF p.V600E)): 4.21 µM
IC50 (134 cancer cell lines; Homo sapiens, SW-620, read-out: IC50 in cell proliferation assay, cell line SW620): 20.1 µM
IC50 (134 cancer cell lines; Homo sapiens, T98G, read-out: IC50 in cell proliferation assay, cell line T98G): 4.8 µM
IC50 (134 cancer cell lines; Homo sapiens, TCC-SUP, read-out: IC50 in cell proliferation assay, cell line TCCSUP): 21.6 µM
IC50 (134 cancer cell lines; Homo sapiens, THP-1, read-out: IC50 in cell proliferation assay, cell line THP-1): 0.15 µM
IC50 (134 cancer cell lines; Homo sapiens, U2OS, read-out: IC50 in cell proliferation assay, cell line U2OS): 8.82 µM
IC50 (134 cancer cell lines; Homo sapiens, U-87 MG, read-out: IC50 in cell proliferation assay, cell line U-87MG ATCC): 10.5 µM
IC50 (134 cancer cell lines; Homo sapiens, U-118-MG, read-out: IC50 in cell proliferation assay, cell line U-118MG): > 31.6 µM
IC50 (134 cancer cell lines; Homo sapiens, UMUC3, read-out: IC50 in cell proliferation assay, cell line UM-UC-3): 25.3 µM
IC50 (134 cancer cell lines; Hs766T, read-out: IC50 in cell proliferation assay, Hs 766T cell line): 18.6 µM
IC50 (134 cancer cell lines; L-82, read-out: IC50 in cell proliferation assay, L-82 cell line (NPM1-ALK)): 22.1 µM
IC50 (134 cancer cell lines; Rh30, read-out: IC50 in cell proliferation assay, cell line Rh30): 12.2 µM
IC50 (134 cancer cell lines; read-out: IC50 in cell proliferation assay, 11-18 cell line (EGFR p.L858R)): 12.9 µM
IC50 (134 cancer cell lines; read-out: IC50 in cell proliferation assay, Hs 852.T cell line): 21.4 µM
IC50 (134 cancer cell lines; read-out: IC50 in cell proliferation assay, JAR cell line): 0.234 µM
IC50 (134 cancer cell lines; read-out: IC50 in cell proliferation assay, cell line 5637): 28 µM
IC50 (134 cancer cell lines; read-out: IC50 in cell proliferation assay, cell line A-388): 12.4 µM
IC50 (134 cancer cell lines; read-out: IC50 in cell proliferation assay, cell line DB): > 31.6 µM
IC50 (134 cancer cell lines; read-out: IC50 in cell proliferation assay, cell line DEL (NPM1-ALK)): > 31.6 µM
IC50 (134 cancer cell lines; read-out: IC50 in cell proliferation assay, cell line ES-2 (BRAF p.V600E)): > 31.6 µM
IC50 (134 cancer cell lines; read-out: IC50 in cell proliferation assay, cell line PA-1): 10.7 µM
IC50 (134 cancer cell lines; read-out: IC50 in cell proliferation assay, cell line PC-3): 5.81 µM
IC50 (134 cancer cell lines; read-out: IC50 in cell proliferation assay, cell line RD): 27.6 µM
IC50 (134 cancer cell lines; read-out: IC50 in cell proliferation assay, cell line RKO (BRAF p.V600E)): 8.82 µM
IC50 (134 cancer cell lines; read-out: IC50 in cell proliferation assay, cell line RL): 24 µM
IC50 (134 cancer cell lines; read-out: IC50 in cell proliferation assay, cell line RT-4 (FGFR3-TACC3)): 9.68 µM
IC50 (134 cancer cell lines; read-out: IC50 in cell proliferation assay, cell line SR (NPM1-ALK)): 14.1 µM
IC50 (134 cancer cell lines; read-out: IC50 in cell proliferation assay, cell line T24): 31.2 µM
IC50 (134 cancer cell lines; read-out: IC50 in cell proliferation assay, cell line TT (RET p.C634W)): > 31.6 µM
IC50 (134 cancer cell lines; read-out: IC50 in cell proliferation assay, cell line VA-ES-BJ): 2.94 µM
inhibition at 1 µM [1]: 0.859%
inhibition at 1 µM [2]: 0.533%
Compound: C[C@H](Nc1ncnc2nc[nH]c12)c1cc2cccc(Cl)c2c(=O)n1-c1ccccc1 [duvelisib]
IC50 (AP-1060 (ETV6-NTRK3)): 11.3 µM
